What follows are compounds tested against T1, CCK-1 receptor (Homo sapiens, UniProt P32238) (assay: [125I]-BH-CCK-8S competition binding to membranes of CHO-K1 cells stably transfected with the CCK-1 receptor). Conditions: membranes of CCK-1 transfected CHO-K1 cells; 20 pM [125I]-BH-CCK-8S; 0.3 μM PD-134,308 present; 60 min at 21±3° C.; Cheng-Prusoff.
T1 construct: expressed in transfected cells; membranes
T1 sequence (P32238 1-428): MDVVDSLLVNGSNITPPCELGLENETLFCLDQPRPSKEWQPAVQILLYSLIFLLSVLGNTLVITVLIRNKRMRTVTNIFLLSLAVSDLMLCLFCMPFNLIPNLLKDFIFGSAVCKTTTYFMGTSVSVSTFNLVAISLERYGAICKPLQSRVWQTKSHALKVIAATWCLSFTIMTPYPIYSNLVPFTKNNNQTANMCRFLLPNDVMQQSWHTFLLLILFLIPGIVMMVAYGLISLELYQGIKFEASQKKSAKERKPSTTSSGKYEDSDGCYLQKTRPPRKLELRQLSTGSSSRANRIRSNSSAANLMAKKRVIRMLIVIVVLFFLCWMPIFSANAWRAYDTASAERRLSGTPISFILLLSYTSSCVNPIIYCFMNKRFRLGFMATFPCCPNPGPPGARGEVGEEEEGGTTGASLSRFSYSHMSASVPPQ
Method: CHO-K1 cells that had undergone stable transfection with the CCK-1 receptor were grown in DMEM supplemented with L-glutamine (2 mM), penicillin (50 units/mL) and streptomycin (50 μg/mL). Cells were cultured under continuous G418 selection (2 mM) and were harvested using a rubber cell scraper. CHO-K1 cells were sub-cultured a maximum of ten times before being reseeded from the original stocks.
Membranes were prepared from the stably transfected CHO-K1 cells. Frozen cell pellets (−40° C.) were thawed in 14 mL of buffer A (10 mM HEPES, 130 mM NaCl, 4.7 mM KCl, 5 mM MgCl, 1 mM EGTA and 15.4 mg/100 mL bacitracin at pH 7.2), adapted from Harper et al. (Br. J. Pharmacol. 1996, 118:1717-1726). The thawed pellets were homogenized using a Polytron PT-10 (7×1 s). The homogenates were centrifuged for 5 min at 1500 rpm (600×g), and the resulting pellets were discarded. The supernatants were re-centrifuged in order to collect the receptor-membrane pellets (25 min 15,000 rpm; 39,800×g), which were re-suspended in buffer A.
All assays were conducted in 96-well plates (GF/B millipore filter plates) using buffer A, with 0.3 μM PD-134,308, for the dilutions. The CCK-2 receptor ligand was included to eliminate the contribution of this receptor subtype to the binding. For the optimal cell number determination experiments 20 pM [^125I]-BH-CCK-8S (50 μL 60 pM solution) was incubated with a range of cell concentrations (2.5×105 to 12.5×10^5 cells/well) in a total volume of 150 μL. Total binding of [^125I]-BH-CCK-8S was determined in the presence of 15 μL of buffer A. Non-specific binding of [^125I]-BH-CCK-8S was determined in the presence of 15 μL of 100 μM 2-naphthalenesulphonyl L-aspartyl-(2-phenethyl)amide (2-NAP: see R. A. Hull et al. Br. J. Pharmacol. 1993, 108:734-740), a CCK-1 receptor selective antagonist that is structurally unrelated to the radioligand [^125I]-BH-CCK-8S. The assay preparation was incubated for 1 h at 21±3° C., and then the assay was terminated upon rapid filtration of the preparation under reduced pressure. The loaded filters were washed three times using undiluted PBS (100 μL), and then the residues were transferred to 5 mL scintillation tubes. Bound radioactivity was determined using a gamma counter (count time=1 min). From these experiments a cell concentration of 1 pellet in 40 mL of buffer (2.5×10^6 cells/mL) was chosen for use in other assays (below). To validate the radioligand concentration and incubation time for the assay, saturation and kinetic binding studies were also conducted (see M. F. Morton, The Pharmacological Characterization of Cholecystokinin Receptors in the Human Gastrointestinal Tract. PhD Thesis, University of London, 2000). The affinity of novel compounds was estimated by incubating membrane preparations with 15 μL of competing ligand (0.1 pM-1 mM) for 60 min at 21±3° C. The assay was then terminated according to the procedure outlined above.
The pKi values were determined using the equation of Y.-C. Cheng and W. H. Prusoff (Biochem. Pharmacol. 1973, 22(23):3099-3108):
[formula] To circumvent problems associated with computer-assisted data analysis of compounds with low affinity, the data obtained in the current study were weighted according to a method described by Morton (2000). In brief, 100% and 0% specific binding were defined independently using total binding and binding obtained in the presence of a high concentration of the reference antagonist, 2-NAP.

| SMILES | Ki [nM] |
| --- | --- |
| O=C(O)/C(=C/c1nc(-c2cc(Cl)ccc2Cl)c(-c2ccc3c(c2)OCO3)[nH]1)c1cccc2ccccc12 [Example 23, (E)-3-[5-Benzo[1,3]dioxol-5-yl-4-(2,5-dichloro-phenyl)-1H-imidazol-2-yl]-2-naphthalen-1-yl-acrylic acid] | 79.4 |
| COc1ccc(-c2[nH]c(CC(C(=O)O)c3ccc(C)cc3)nc2-c2ccc(Cl)c(Cl)c2)cc1 (stereo not shown) [Example 29, 3-[4-(3,4-Dichloro-phenyl)-5-(4-methoxy-phenyl)-1H-imidazol-2-yl]-2-p-tolyl-propionic acid] | 126 |
| COc1ccc(-c2[nH]c(CC(C(=O)O)c3cccc4ccccc34)nc2-c2ccc(Cl)c(Cl)c2)cc1 (stereo not shown) [Example 26, 3-[4-(3,4-Dichloro-phenyl)-5-(4-methoxy-phenyl)-1H-imidazol-2-yl]-2-naphthalen-1-yl-propionic acid] | 39.8 |
| COc1ccc(-c2[nH]c(/C=C(/C(=O)O)c3cccc(C)c3)nc2-c2ccc(Cl)c(Cl)c2)cc1 [Example 17, (E)-3-[4-(3,4-Dichloro-phenyl)-5-(4-methoxy-phenyl)-1H-imidazol-2-yl]-2-m-tolyl-acrylic acid] | 79.4 |
| Cc1ccc(-c2nc(CC(C(=O)O)c3cccc(C)c3)n(C)c2-c2ccc(C)cc2)cc1 (stereo not shown) [Example 31, 3-(1-Methyl-4,5-di-p-tolyl-1H-imidazol-2-yl)-2-m-tolyl-propionic acid] | 39.8 |

Stronger by Ki, values ahead:

| Ki [nM] | SMILES |
| --- | --- |
| 3.16 | O=C(O)/C(=C\c1nc(-c2cc(Cl)ccc2Cl)c(-c2ccc3c(c2)OCO3)[nH]1)c1ccc(Cl)cc1 [Example 5, (Z)-3-[5-Benzo[1,3]dioxol-5-yl-4-(2,5-dichloro-phenyl)-1H-imidazol-2-yl]-2-(4-chloro-phenyl)-acrylic acid] |
| 15.8 | O=C(O)/C(=C/c1nc(-c2cc(Cl)ccc2Cl)c(-c2ccc3c(c2)OCO3)[nH]1)c1ccc(Cl)cc1 [Example 20, (E)-3-[5-Benzo[1,3]dioxol-5-yl-4-(2,5-dichloro-phenyl)-1H-imidazol-2-yl]-2-(4-chloro-phenyl)-acrylic acid] |
| 7.94 | COc1ccc(-c2[nH]c(/C=C(\C(=O)O)c3cccc(C)c3)nc2-c2ccc(Cl)c(Cl)c2)cc1 [Example 9, (Z)-3-[4-(3,4-Dichloro-phenyl)-5-(4-methoxy-phenyl)-1H-imidazol-2-yl]-2-m-tolyl-acrylic acid] |
| 10 | COc1ccc(-c2[nH]c(/C=C(\C(=O)O)c3ccc(C)cc3)nc2-c2ccc(Cl)c(Cl)c2)cc1 [Example 11, (Z)-3-[4-(3,4-Dichloro-phenyl)-5-(4-methoxy-phenyl)-1H-imidazol-2-yl]-2-p-tolyl-acrylic acid] |
| 3.16 | O=C(O)/C(=C/c1nc(-c2cc(Cl)ccc2Cl)c(-c2ccc3c(c2)OCO3)[nH]1)c1cccc(Cl)c1 [Example 2, (E)-3-[5-Benzo[1,3]dioxol-5-yl-4-(2,5-dichloro-phenyl)-1H-imidazol-2-yl]-2-(3-chloro-phenyl)-acrylic acid] |

— patent US7250434B2, “CCK-1 receptor modulators” (Janssen Pharmaceutica N.V., priority 2003, dated 2007)
